Data as given in patent US20160017048A1, “TARGETING CD138 IN CANCER” (priority 2013, published 2016).

Key:
iC9 suicide gene [1] = experiment: in vivo elimination of hCAR.CD138 T cells by AP1903 in patients; set-up: species or system human; details: within 3 hours of AP1903 administration
Text: Persistence and expansion of transferred T cells are estimated using immunophenotype and real-time quantitative PCR assay (Q-PCR) in DNA extracted from PB collected at different time points after T-cell infusions. BM samples are collected at week 6 as part of the clinical evaluation of these patients. Plasma samples are collected and snap frozen at intervals to detect IL-2, IL6, IFNγ and TNFα released by T cells in vivo. One can also seek clinical evidence of antitumor activity by monitoring paraprotein levels and PC BM infiltration at 6, 12 and 24 weeks, for example. Patients are closely monitored for the occurrence of toxicity according to NCI criteria. In the case of grade III-IV toxicity, patients are treated with AP1903 to activate the iC9 gene as previously reported. The iC9 effects are quantified by measuring the loss of CAR+ circulating cells and by changes in the iC9 transgene by QPCR.
The molecular signal of the CAR (which is hypoxia independent) is detected both in PB and BM samples by week 6, even though there may be higher signal in the BM because of the accumulation of CAR T cells. The expression of the CAR by flow cytometry in T cells (which is hypoxia dependent, as it detects protein synthesis) is anticipated to be much higher in BM as compared to PB because MM BM is hypoxic. […]

iC9 suicide gene [2] = experiment: in vitro elimination of transduced T cells by AP1903 activation of iC9; format: cell-based; details: within 24 hrs of in vitro exposure to AP1903 (20-50 nM)
Protocol: A stable producer line with a titer >10^6 per mL may be developed. The T-cell transduction efficiency may range from 30% to 40% in hypoxia (FIG. 3). Redirected T cells can eliminate CD138+ targets in coculture experiments in hypoxia and can be rapidly eliminated (>90% of transduced cells) within 24 hrs of in vitro exposure to AP1903 (20-50 nM), the small molecule dimerizer that activates the iC9 suicide gene.

## CC[C@H](C(=O)N1CCCC[C@H]1C(=O)O[C@H](CCc1ccc(OC)c(OC)c1)c1cccc(OCC(=O)NCCNC(=O)COc2cccc([C@@H](CCc3ccc(OC)c(OC)c3)OC(=O)[C@@H]3CCCCN3C(=O)[C@@H](CC)c3cc(OC)c(OC)c(OC)c3)c2)c1)c1cc(OC)c(OC)c(OC)c1 [AP1903]
iC9 suicide gene [1]
  hCAR.CD138T eliminated: > 90%
iC9 suicide gene [2]
  transduced cells eliminated: > 90%
